# According to patent US10576151B2, “Ciclopirox for use in modulation of glucose homeostasis” (UNIVERSITY OF SOUTH CAROLINA, priority 2015, dated 2020):
# Test system: pancreatic islets
# Assay: Islet survival under increasing glucose (glucotoxicity), CellTiter 96 AQueous One
# Type: cell-based, mice
# Conditions: for protection from glucotoxicity (islet survival): increasing glucose
# Experimental: Islet Isolation and Viability Assessment. Pancreatic islets were manually isolated from female C57BI/6 mice by the collagenase digestion method (Sigma-Aldrich; Li et al. 2009) and placed in a 96-well plate. The islets were incubated at 37° C. with 95% air and 5% CO2. Islets were manually picked after dithizone (DTZ; Sigma Chemical Co) staining. Before experiments were performed, the islet cells were incubated with extracellular Krebs-Ringer (KR) solution (Sigma-Aldrich) and with increasing amounts of glucose for 24 h and 48 h. Islet cell viability was assessed using CellTiter 96 AQueous One Solution Cell Proliferation Assay from Promega (Madison, USA). Islets from wt, p21-deficient, p53-deficient and CHOP-deficient mice were exposed to CPX at 20 μM for 24 h under increasing glucose amounts in the culture media, then they were let to recover for 48 h in normal glucose-containing media and their survival was assessed (FIG. 9). The 48 h recovery in normal media was deemed necessary because CPX, by inducing p21 expression would inflict cell cycle arrest in islets masking the effects of glucotoxicity. […] The p21-stimulatory activity of CPX in the islets is also p53-independent. […] Consistently with its pro-apoptotic role during ER stress CHOP ablation conferred resistance of islets to glucotoxicity (FIG. 10 at B).
structure (smiles),measurement,setting,value
"Cc1cc(C2CCCCC2)n(O)c(=O)c1 [CPX, 6-cyclohexyl-1-hydroxy-4-methylpyridin-2(1H)-one]",protection from glucotoxicity (islet survival),"p21-deficient islets, CPX 20 μM 24 h then 48 h recovery (FIG. 10D)",not p21-deficient animals
same,protection from glucotoxicity (islet survival),"p53-deficient islets, CPX 20 μM 24 h then 48 h recovery (FIG. 10C)",A similar trend was also found for p53
same,protection from glucotoxicity (islet survival),"wt islets, CPX 20 μM 24 h then 48 h recovery (FIG. 10A)",protected wt
same,islet growth,"wt islets, normal glucose, CPX 20 μM 24 h then 48 h recovery (FIG. 10A)",significantly inhibited islet growth
